Experimental findings from ChEMBL document CHEMBL4330116, “Harzianoic acids A and B, new natural scaffolds with inhibitory effects against hepatitis C virus” (Bioorg Med Chem, 2019) are described below.

For the experiment, the system named is Vesicular stomatitis virus. The experiment is described as follows: Antiviral activity against VSV pseudoparticles infected in human Huh7.5 cells infected with VSV pseudoparticles expressed in 293T cells with plasmid encoding vesicular stomatitis G protein, envelope and Vpr deficient HIV vector carrying luciferase reporter gene inserted into Nef position assessed as inhibition of pseudoparticle entry at 6.25 to 100 uM after 72 hrs by luciferase reporter gene assay. In kind it is functional, organism-based. A general note: Reporter assays use an easily measured gene product as a stand-in for the process of interest.

The structures appear in SMILES notation. Active and inactive are the calls of the source. The rule behind the calls is not given here.

For the compound `C/C(=C\CC[C@]1(C)[C@@H](C(=O)O)C[C@H]1[C@](C)(O)C(=O)O)C(=O)O`, the inhibition entry was “inactive”. As for `CC(=O)[C@@H]1C[C@H](C(=O)O)[C@@]1(C)CC/C=C(\C)C(=O)O`, the entry is “inactive”.
